Legend:
[1] = system: EV71-4643; assay: plaque reduction assay, EV71-4643; type: cell-based, Enterovirus 71 (EV71); conditions: Enterovirus A, vero cells, plaques counted after 96 hours at 35° C.
Description: (§1) Enterovirus 71 (EV71) isolates were obtained from Chang Gung Children's Hospitals (Taipei, Taiwan) and National Cheng Kung University Hospital (Tainan, Taiwan). EV71-2231 and EV71-1743 were isolated from throat swabs. EV71-2086 was isolated from the skin lesion of an implicated HFMD (hand, foot, and mouth disease) patient. EV71-4643 was a clinical isolate obtained from the throat swabs of a patient with encephalitis). BrCr, the prototype of EV71, was obtained from the American Type Culture Collection (ATCC Accession No. VR 784). Vero cells (ATCC Accession No. CCL-81) were used for virus isolation and propagation.
(§2) The antiviral activity of a number of imidazolidinone compounds was determined by a standard plaque reduction assay as described in Otto et al., Antimicrobial Agents & Chemotherapy, 1985, 27:883-886.
(§3) A compound to be tested was serially diluted and included in the agar-medium overlay. Plates were incubated at 35° C. for 96 hours. The plaques were stained with crystal violet and counted.

[2] = system: EV71-2231; assay: plaque reduction assay, EV71-2231; type: cell-based, Enterovirus 71 (EV71); conditions: Enterovirus A, vero cells, plaques counted after 96 hours at 35° C.
Description: as §1, §2, §3

| Compound | IC50 [1] | IC50 [2] |
| --- | --- | --- |
| CCO/N=C/c1ccc(OCCC(C)CCN2CCN(c3ccncc3)C2=O)cc1 (centres unmarked) [Compound 5, 4-[3-methyl-5-(2-oxo-3-pyridin-4-yl-imidazolidin-1-yl)-pentyloxy]-benzaldehyde O-ethyl-oxime] | ≤ 38.1 nM | ≤ 38.1 nM |
| CCO/N=C/c1ccc(OCCC(C)(C)CCN2CCN(c3ccncc3)C2=O)cc1 [Compound 6, 4-[3,3-dimethyl-5-(2-oxo-3-pyridin-4-yl-imidazolidin-1-yl)-pentyloxy]-benzaldehyde O-ethyl-oxime] | ≤ 38.1 nM | ≤ 38.1 nM |
| CCO/N=C/c1ccc(OCC[C@H](C)CCN2CCN(c3ccncc3)C2=O)cc1 [Compound 7, 4-[(R)-3-methyl-5-(2-oxo-3-pyridin-4-yl-imidazolidin-1-yl)-pentyloxy]-benzaldehyde O-ethyl-oxime] | ≤ 38.1 nM | ≤ 38.1 nM |
| CCO/N=C/c1ccc(OCC[C@@H](C)CCN2CCN(c3ccncc3)C2=O)cc1 [Compound 8, 4-[(S)-3-methyl-5-(2-oxo-3-pyridin-4-yl-imidazolidin-1-yl)-pentyloxy]-benzaldehyde O-ethyl-oxime] | ≤ 38.1 nM | ≤ 38.1 nM |

From patent US7259174B2, “Imidazolidinone compounds” (National Health Research Institutes, priority 2004, dated 2007)
